Key:
[1] = biological target: T1, hα7-wt nAChR-expressing GH4Cl cells (Homo sapiens, UniProt P36544); experiment: Patch-clamp current recording (whole-cell), potentiation of choline 1 mM response, PAM type; assay type: cell-based; parameters: key to Pam type: Type 0 compounds minimally enhance the effect size of the current elicited by 1 mM choline.; Type 1 compounds enhance the effect size of the current elicited by 1 mM choline but minimally alter the kinetics of the receptor.; Type 2 compounds enhance the effect size of the current elicited by 1 mM choline while reducing the rate and/or the extent of desensitization.; Type 3 compounds enhance the effect size of the current elicited by 1 mM choline. When tested at higher concentrations up to 10 μM they completely inhibit desensitization, in particular a 1 mM choline application of 250 milliseconds.; Type 4 compounds allow for an initial desensitization of the receptor followed by a re-opening of the receptor during agonist application; settings: for EC50: according to Ex. D.2, "<5" = no top plateau reached at maximal concentration, read-out: Potency (pEC50) (converted); for Pam type: patch-clamp current recording, 1 mM choline
T1 construct: expressed in transfected cells
T1 sequence (P36544 23-502): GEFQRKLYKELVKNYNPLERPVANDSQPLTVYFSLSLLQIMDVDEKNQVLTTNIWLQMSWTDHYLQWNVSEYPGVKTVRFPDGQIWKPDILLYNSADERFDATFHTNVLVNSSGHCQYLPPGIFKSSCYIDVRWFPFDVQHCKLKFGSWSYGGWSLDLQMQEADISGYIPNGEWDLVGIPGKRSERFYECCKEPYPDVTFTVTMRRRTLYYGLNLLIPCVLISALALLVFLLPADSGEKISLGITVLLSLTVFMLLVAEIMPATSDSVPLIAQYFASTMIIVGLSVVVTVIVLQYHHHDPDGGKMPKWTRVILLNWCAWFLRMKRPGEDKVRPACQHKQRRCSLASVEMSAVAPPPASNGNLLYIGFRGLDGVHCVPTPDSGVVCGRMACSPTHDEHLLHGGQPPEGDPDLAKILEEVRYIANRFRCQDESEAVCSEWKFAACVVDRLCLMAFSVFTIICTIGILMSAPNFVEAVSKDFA
Outline: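 PAM type assigned qualitatively from current size and desensitization rate/extent when compound is applied simultaneously with 1 mM choline. Recordings: hα7-wt nAChR GH4Cl cells, whole-cell patch clamp, holding −70 mV, series resistance <15 MΩ with ≥60% compensation, pH 7.3 HEPES solutions, solution switching <100 ms.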

[2] = biological target: T2, hα7-wt nAChR-expressing cells (Homo sapiens, UniProt P36544); experiment: Ca2+ flux imaging (FDSS) (Protocol B), PAM activity with choline 100 μM; assay type: cell-based; settings: according to Ex. D.1b; read-out: % Efficacy
T2 construct: expressed in transfected cells; host or cells: hα7-wt nAChR-expressing cells
T2 sequence (P36544 23-502): as above
Procedure: Ca^2+ Flux Imaging (FDSS) (Protocol B)
• a) Assay buffer • Hanks buffered saline solution (HBSS, Invitrogen, Belgium), supplemented with 10 mM HEPES (Invitrogen, Belgium), CaCl2 to a final concentration of 5 mM, 0.1% Bovine serum albumin (Sigma-Aldrich NV, Belgium). • b) Calcium-sensitive dye—Fluo-4AM • Fluo-4AM (Molecular Probes, USA) was dissolved in DMSO containing 10% Pluronic acid (Molecular Probes, USA) to give a stock solution which was diluted in assay buffer supplemented with 5 mM probenicid (Sigma, Al-drich NV, Belgium) to give a final concentration of 2 μM. • c) 384-well plates • Black 384 well plate black/clear plates, PDL pre-coated (Corning, Incorporated, USA) • d) Calcium flux measurement • A Functional drug screening system (FDSS, Hamamatsu) was used to measure intracellular free-calcium flux signals. Method
Monolayers of hα7-wt nAChR-expressing cells were grown in multi-well plates, in particular black-sided, transparent bottomed 384 well plates coated with poly-D-lysine for 24 hours prior to loading with a fluorescent calcium indicator, in a particular embodiment loading with fluo-4AM for up to 120 minutes.
PAM activity was detected in real time by applying the compounds to be tested to the loaded cells along with a α7 nicotinic receptor agonist during constant monitoring of cellular fluorescence in a FDSS. Compounds giving peak fluorescent responses greater than the response due to agonist alone, were considered to be α7 nAChR PAM's. In a particular embodiment, the α7 nicotinic receptor agonist was choline, a more particular embodiment choline applied at a sub-maximal concentration of 100 μM. In a further setting of the present invention the compounds to be tested were applied prior to the α7 nicotinic receptor agonist, in a particular embodiment up to 10 minutes prior to the agonist.
A control response to choline was calculated on each plate from the difference in peak in fluorescence in wells receiving either choline or assay buffer alone. Compounds of the present invention were tested at a concentration range from 0.01 μM to 30 μM. Compounds were considered to have an interesting activity when they potentiated the choline signal at least with 500% when tested at a concentration of 30 μM (the efficacy of 100 μM choline was defined as 100% in the absence of a PAM). The compounds also have a potentiating effect on the response to choline when measured by whole-cell patch clamp electrophysiology in GH4Cl cells stably over-expressing the human wild-type α7 receptor.

melting point [°C] | Emax [2] [%] | Structure (SMILES) | EC50 [1] [nM] | Pam type [1]
297.4 | 628 | CNC(=O)Cc1nc(Nc2cc(F)c(F)c(F)c2)nn1-c1cc(C)nc(C)c1 [E240] | 490 | –
264.2 | 603 | CNC(=O)Cc1nc(Nc2ccc(F)c(C(F)(F)F)c2)nn1-c1cc(C)nc(C)c1 [E223] | 316 | –
225.7 | 961 | Cc1cc(-n2nc(Nc3ccc(F)c(F)c3)nc2C[C@H](C)O)cc(C)n1 [E141] | 1380 | 2
280.7 | 614 | CNC(=O)Cc1nc(Nc2cc(F)cc(Cl)c2)nn1-c1cc(C)nc(C)c1 [E245] | 398 | –
284.5 | 930 | CCNC(=O)Cc1nc(Nc2cc(F)cc(C(F)(F)F)c2)nn1-c1cc(C)nc(C)c1 [E252] | 195 | –
290.2 | 494 | CCNC(=O)Cc1nc(Nc2cc(F)cc(Cl)c2)nn1-c1cc(C)nc(C)c1 [E246] | 275 | –
287.4 | 417 | Cc1cc(-n2nc(Nc3ccc(F)c(Cl)c3)nc2CC(=O)NC2CC2)cc(C)n1 [E230] | 141 | –
254 | 702 | CCNC(=O)Cc1nc(Nc2cc(Cl)cc(OC)c2)nn1-c1cc(C)nc(C)c1 [E219] | 269 | 4
178 | 419 | Cc1cc(-n2nc(Nc3ccc4c(c3)OC(F)(F)O4)nc2CCC(=O)N(C)C)cc(C)n1 [E235, 3-[(2,2-difluoro-1,3-benzodioxol-5-yl)amino]-1-(2,6-dimethyl-4-pyridinyl)-N,N-dimethyl-1H-1,2,4-triazole-5-propanamide] | 28.8 | –
273.9 | 606 | Cc1cc(-n2nc(Nc3ccc(F)c(Cl)c3)nc2CC(=O)NC2CCC2)cc(C)n1 [E231] | 57.5 | –
286.2 | 658 | CNC(=O)Cc1nc(Nc2cc(F)cc(C(F)(F)F)c2)nn1-c1cc(C)nc(C)c1 [E251] | 263 | –
263 | 654 | CNC(=O)Cc1nc(Nc2ccc(OC)c(C(F)(F)F)c2)nn1-c1cc(C)nc(C)c1 [E227] | 457 | 4
256.2 | 600 | CCNC(=O)Cc1nc(Nc2ccc(F)c(C(F)(F)F)c2)nn1-c1cc(C)nc(C)c1 [E224] | 204 | 1
282.1 | 289 | CNC(=O)Cc1nc(Nc2cc(F)cc(F)c2)nn1-c1cc(C)nc(C)c1 [E232] | 871 | –
289 | 522 | CCNC(=O)Cc1nc(Nc2cc(F)cc(F)c2)nn1-c1cc(C)nc(C)c1 [E237] | 407 | –
289.2 | 382 | Cc1cc(-n2nc(Nc3cc(F)cc(F)c3)nc2CC(=O)NC2CC2)cc(C)n1 [E238] | 575 | –
200.2 | 459 | Cc1cc(-n2nc(Nc3ccc(F)c(F)c3)nc2CCC(=O)N(C)C)cc(C)n1 [E234, 3-[(3,4-difluorophenyl)amino]-1-(2,6-dimethyl-4-pyridinyl)-N,N-dimethyl-1H-1,2,4-triazole-5-propanamide] | 61.7 | –
265.7 | 680 | COc1ccc(Nc2nc(CC(=O)NC3CC3)n(-c3cc(C)nc(C)c3)n2)cc1C(F)(F)F [E229] | 135 | 4
296.1 | 658 | CCNC(=O)Cc1nc(Nc2cc(F)c(F)c(F)c2)nn1-c1cc(C)nc(C)c1 [E215] | 214 | 2

The next lines start with the compound.

Structure (SMILES) | melting point [°C] | Emax [2] [%] | EC50 [1] [nM] | Pam type [1]
Cc1cc(-n2nc(Nc3ccc(F)c(F)c3F)nc2CC(=O)NCC2CC2)cc(C)n1 [E214] | 213.7 | 730 | 132 | 2
C[C@H](O)Cc1nc(Nc2ccc(F)c(F)c2)nn1-c1ccc(F)cc1 [E19] | 178 | 445 | 3020 | –
Cc1cc(-n2nc(Nc3cc(F)c(F)c(F)c3)nc2CC(=O)NC2CC2)cc(C)n1 [E241] | 295.7 | 653 | 138 | –
Cc1cc(-n2nc(Nc3cc(F)c(F)c(F)c3)nc2CC(=O)NC2CCC2)cc(C)n1 [E242] | 291.9 | 676 | 95.5 | –
COc1cc(Nc2nc(CC(=O)NC3CCC3)n(-c3cc(C)nc(C)c3)n2)cc(C(F)(F)F)c1 [E244] | 278.4 | 701 | 31.6 | –
CNC(=O)CCc1nc(Nc2ccc(F)c(F)c2)nn1-c1ccc(Cl)cc1 [E40] | 177.3 | 495 | 1910 | –
Cc1cc(-n2nc(Nc3ccc(F)c(C(F)(F)F)c3)nc2CC(=O)NC2CCC2)cc(C)n1 [E225] | 248.8 | 660 | 100 | 0
Cc1cc(-n2nc(Nc3ccc(F)c(F)c3F)nc2CC(=O)NC(C)C)cc(C)n1 [E213] | 252.1 | 909 | 468 | 2
COc1ccc(Nc2nc(CC(=O)NC3CCC3)n(-c3cc(C)nc(C)c3)n2)cc1C(F)(F)F [E236] | 268.7 | 391 | 120 | –
Cc1nccc(-n2nc(Nc3cccc(Cl)c3F)nc2CC(=O)NC2CCC2)c1C [E192] | 187.9 | 397 | 1580 | 1
Cc1cc(-n2nc(Nc3cc(F)cc(C(F)(F)F)c3)nc2CC(=O)NC2CC2)cc(C)n1 [E253] | 286.3 | 950 | 91.2 | –
CNC(=O)Cc1nc(Nc2cc(Cl)cc(OC)c2)nn1-c1cc(C)nc(C)c1 [E216] | 246.2 | 576 | 603 | 4
Cc1cc(-n2nc(Nc3cc(F)cc(Cl)c3)nc2CC(=O)NC2CCC2)cc(C)n1 [E248] | 287 | 421 | 107 | –
COc1cc(Cl)cc(Nc2nc(CC(=O)NC3CCC3)n(-c3cc(C)nc(C)c3)n2)c1 [E222] | 257.8 | 440 | 83.2 | 1
CNC(=O)Cc1nc(Nc2cc(OC)cc(C(F)(F)F)c2)nn1-c1cc(C)nc(C)c1 [E243] | 284.6 | 802 | 204 | –
